Structures are written as SMILES.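 All cell lines were grown in 96-well plates and treated with compound for 48 hours. TGI: concentration producing complete growth inhibition.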 A value given as a limit tells only on which side of the number the result lay.

The first test relates to HL-60(TB) leukemia. Kind of test: NCI-60 cell line screen, 48 h.
`O=C(Oc1ccccc1)N1c2ccccc2[C@@]23O[C@]24CCC[C@H]3C#C/C=C\C#C[C@H]14` yielded a TGI of 26.1 µM.

Another test has as its system NCI-H522 lung. Kind of test: NCI-60 cell line screen, 48 h.
`O=[N+]([O-])/C(C(Cl)=C(Cl)Cl)=C(/Nc1ccccc1)SCc1ccccc1` came in with a TGI of 47.1 µM.
Still for that read-out and setting: under `COc1cc(N(CCC#N)CCC#N)ccc1/C(N=Nc1ccccc1C)=N\NC(=O)c1ccc(C)cc1` stands greater than 100 µM.

The next test relates to MDA-N. Kind of test: NCI-60 cell line screen, 48 h.
Compound `CC1C[C@]2(C)C(=NCCN)Nc3ccccc3[C@@H]2N(C)c2ccccc21` (some centres undefined) displayed a TGI of 27.8 µM.
Still for that read-out and setting: to `O=[N+]([O-])/C(C(Cl)=C(Cl)Cl)=C(/Nc1ccccc1)SCc1ccccc1` belongs 33.9 µM; to `COc1cc(N(CCC#N)CCC#N)ccc1/C(N=Nc1ccccc1C)=N\NC(=O)c1ccc(C)cc1`, 58.8 µM.
Same read-out and setting: under `O=C(Oc1ccccc1)N1c2ccccc2[C@@]23O[C@]24CCC[C@H]3C#C/C=C\C#C[C@H]14` stands 26.9 µM.

In a further test the test system is SK-MEL-5 melanoma. In words: NCI-60 cell line screen, 48 h.
`CC1C[C@]2(C)C(=NCCN)Nc3ccccc3[C@@H]2N(C)c2ccccc21` (some centres undefined) displayed a TGI of 26.8 µM.
Still for that read-out and setting: to `O=[N+]([O-])/C(C(Cl)=C(Cl)Cl)=C(/Nc1ccccc1)SCc1ccccc1` belongs 37 µM.
`COc1cc(N(CCC#N)CCC#N)ccc1/C(N=Nc1ccccc1C)=N\NC(=O)c1ccc(C)cc1` returned a TGI greater than 100 µM.

Another test relates to M14 melanoma. Kind of test: NCI-60 cell line screen, 48 h.
As for `CC1C[C@]2(C)C(=NCCN)Nc3ccccc3[C@@H]2N(C)c2ccccc21` (some centres undefined), the TGI was found to be 3.56 µM.
On the same count and under the same terms, to `O=[N+]([O-])/C(C(Cl)=C(Cl)Cl)=C(/Nc1ccccc1)SCc1ccccc1` belongs 30.6 µM.
The same measure, in the same setting: under `COc1cc(N(CCC#N)CCC#N)ccc1/C(N=Nc1ccccc1C)=N\NC(=O)c1ccc(C)cc1` stands greater than 100 µM; under `O=C(Oc1ccccc1)N1c2ccccc2[C@@]23O[C@]24CCC[C@H]3C#C/C=C\C#C[C@H]14`, 30.6 µM.

A further test has as its system HOP-62 NSCLC. Kind of test: NCI-60 cell line screen, 48 h.
Compound `CC1C[C@]2(C)C(=NCCN)Nc3ccccc3[C@@H]2N(C)c2ccccc21` (some centres undefined) yielded a TGI of 30.6 µM.
In turn, `O=[N+]([O-])/C(C(Cl)=C(Cl)Cl)=C(/Nc1ccccc1)SCc1ccccc1` came in with a TGI of 36.1 µM.
Still for that read-out and setting: to `COc1cc(N(CCC#N)CCC#N)ccc1/C(N=Nc1ccccc1C)=N\NC(=O)c1ccc(C)cc1` belongs greater than 100 µM; to `O=C(Oc1ccccc1)N1c2ccccc2[C@@]23O[C@]24CCC[C@H]3C#C/C=C\C#C[C@H]14`, 25.6 µM.

In a further test the test system is OVCAR-4 ovarian. In words: NCI-60 cell line screen, 48 h.
For `CC1C[C@]2(C)C(=NCCN)Nc3ccccc3[C@@H]2N(C)c2ccccc21` (some centres undefined), the TGI is 30.4 µM.
`O=[N+]([O-])/C(C(Cl)=C(Cl)Cl)=C(/Nc1ccccc1)SCc1ccccc1` came in with a TGI of 66.8 µM.
Compound `COc1cc(N(CCC#N)CCC#N)ccc1/C(N=Nc1ccccc1C)=N\NC(=O)c1ccc(C)cc1` yielded a TGI greater than 100 µM.
Same read-out and setting: under `O=C(Oc1ccccc1)N1c2ccccc2[C@@]23O[C@]24CCC[C@H]3C#C/C=C\C#C[C@H]14` stands 23.3 µM.

The test system of a further test is NCI/ADR-RES ovarian. Kind of test: NCI-60 cell line screen, 48 h.
As to `CC1C[C@]2(C)C(=NCCN)Nc3ccccc3[C@@H]2N(C)c2ccccc21` (some centres undefined), the TGI stood at 59 µM.
In turn, `O=[N+]([O-])/C(C(Cl)=C(Cl)Cl)=C(/Nc1ccccc1)SCc1ccccc1` returned a TGI of 31.1 µM.
On the same count and under the same terms, under `COc1cc(N(CCC#N)CCC#N)ccc1/C(N=Nc1ccccc1C)=N\NC(=O)c1ccc(C)cc1` stands greater than 100 µM; under `O=C(Oc1ccccc1)N1c2ccccc2[C@@]23O[C@]24CCC[C@H]3C#C/C=C\C#C[C@H]14`, 33.2 µM.

Another test deals with HCC-2998 colon. In words: NCI-60 cell line screen, 48 h.
The compound `CC1C[C@]2(C)C(=NCCN)Nc3ccccc3[C@@H]2N(C)c2ccccc21` (some centres undefined) displayed a TGI of 9.69 µM.
Same read-out and setting: under `O=[N+]([O-])/C(C(Cl)=C(Cl)Cl)=C(/Nc1ccccc1)SCc1ccccc1` stands 45 µM.
Same read-out and setting: under `COc1cc(N(CCC#N)CCC#N)ccc1/C(N=Nc1ccccc1C)=N\NC(=O)c1ccc(C)cc1` stands greater than 100 µM.

A further test has as its system EKVX NSCLC. In words: NCI-60 cell line screen, 48 h.
Take `CC1C[C@]2(C)C(=NCCN)Nc3ccccc3[C@@H]2N(C)c2ccccc21` (some centres undefined): the TGI was 33 µM.
On the same count and under the same terms, under `O=[N+]([O-])/C(C(Cl)=C(Cl)Cl)=C(/Nc1ccccc1)SCc1ccccc1` stands 48.6 µM.
Same read-out and setting: under `COc1cc(N(CCC#N)CCC#N)ccc1/C(N=Nc1ccccc1C)=N\NC(=O)c1ccc(C)cc1` stands greater than 100 µM; under `O=C(Oc1ccccc1)N1c2ccccc2[C@@]23O[C@]24CCC[C@H]3C#C/C=C\C#C[C@H]14`, 31.8 µM.

In another test the test system is KM12 colon. In words: NCI-60 cell line screen, 48 h.
In turn, `CC1C[C@]2(C)C(=NCCN)Nc3ccccc3[C@@H]2N(C)c2ccccc21` (some centres undefined) displayed a TGI of 30 µM.
In turn, `O=[N+]([O-])/C(C(Cl)=C(Cl)Cl)=C(/Nc1ccccc1)SCc1ccccc1` returned a TGI of 32.5 µM.
On to `COc1cc(N(CCC#N)CCC#N)ccc1/C(N=Nc1ccccc1C)=N\NC(=O)c1ccc(C)cc1`, for which the TGI is greater than 100 µM.
Same read-out and setting: under `O=C(Oc1ccccc1)N1c2ccccc2[C@@]23O[C@]24CCC[C@H]3C#C/C=C\C#C[C@H]14` stands 26.4 µM.

The subject of a further test is A549 NSCLC. Kind of test: NCI-60 cell line screen, 48 h.
With `CC1C[C@]2(C)C(=NCCN)Nc3ccccc3[C@@H]2N(C)c2ccccc21` (some centres undefined), the TGI was 31.6 µM.
The same measure, in the same setting: under `O=[N+]([O-])/C(C(Cl)=C(Cl)Cl)=C(/Nc1ccccc1)SCc1ccccc1` stands 33.5 µM; under `COc1cc(N(CCC#N)CCC#N)ccc1/C(N=Nc1ccccc1C)=N\NC(=O)c1ccc(C)cc1`, greater than 100 µM.
The same measure, in the same setting: under `O=C(Oc1ccccc1)N1c2ccccc2[C@@]23O[C@]24CCC[C@H]3C#C/C=C\C#C[C@H]14` stands 25 µM.

In the next test the test system is HCT-15 colon. Kind of test: NCI-60 cell line screen, 48 h.
`CC1C[C@]2(C)C(=NCCN)Nc3ccccc3[C@@H]2N(C)c2ccccc21` (some centres undefined) registered a TGI of 34.5 µM.
In turn, `O=[N+]([O-])/C(C(Cl)=C(Cl)Cl)=C(/Nc1ccccc1)SCc1ccccc1` came in with a TGI of 29.7 µM.
Same read-out and setting: under `COc1cc(N(CCC#N)CCC#N)ccc1/C(N=Nc1ccccc1C)=N\NC(=O)c1ccc(C)cc1` stands greater than 100 µM.
Still for that read-out and setting: under `O=C(Oc1ccccc1)N1c2ccccc2[C@@]23O[C@]24CCC[C@H]3C#C/C=C\C#C[C@H]14` stands 25.9 µM.

The subject of a further test is LOX IMVI melanoma. Kind of test: NCI-60 cell line screen, 48 h.
As to `CC1C[C@]2(C)C(=NCCN)Nc3ccccc3[C@@H]2N(C)c2ccccc21` (some centres undefined), the TGI was found to be 28.2 µM.
On the same count and under the same terms, under `O=[N+]([O-])/C(C(Cl)=C(Cl)Cl)=C(/Nc1ccccc1)SCc1ccccc1` stands 39.1 µM.
`COc1cc(N(CCC#N)CCC#N)ccc1/C(N=Nc1ccccc1C)=N\NC(=O)c1ccc(C)cc1` gave a TGI greater than 100 µM.
On the same count and under the same terms, to `O=C(Oc1ccccc1)N1c2ccccc2[C@@]23O[C@]24CCC[C@H]3C#C/C=C\C#C[C@H]14` belongs 25.6 µM.

Another test deals with K-562 leukemia. In words: NCI-60 cell line screen, 48 h.
In turn, `CC1C[C@]2(C)C(=NCCN)Nc3ccccc3[C@@H]2N(C)c2ccccc21` (some centres undefined) came in with a TGI of 40.2 µM.
On the same count and under the same terms, under `O=[N+]([O-])/C(C(Cl)=C(Cl)Cl)=C(/Nc1ccccc1)SCc1ccccc1` stands 49.9 µM; under `COc1cc(N(CCC#N)CCC#N)ccc1/C(N=Nc1ccccc1C)=N\NC(=O)c1ccc(C)cc1`, greater than 100 µM; under `O=C(Oc1ccccc1)N1c2ccccc2[C@@]23O[C@]24CCC[C@H]3C#C/C=C\C#C[C@H]14`, greater than 100 µM.

The subject of the next test is HOP-92 NSCLC. Kind of test: NCI-60 cell line screen, 48 h.
As to `CC1C[C@]2(C)C(=NCCN)Nc3ccccc3[C@@H]2N(C)c2ccccc21` (some centres undefined), the TGI was found to be 9.49 µM.
